# Reference: patent US7045547B2, “Acyl-CoA dehydrogenase allenic inhibitors” (University of Delaware, priority 2002, dated 2006)
# Read-outs that look alike come from different tables or passages of the source.
# Key:
# [1] = target: T1, medium chain dehydrogenase (Sus scrofa, UniProt P41367); experiment: Competition studies with the substrate octanoyl-CoA; type: biochemical, pig; parameters: medium-chain acyl-CoA dehydrogenase (MC-CoA DH) as purified from pig kidney; from tissue; host or cells: pig kidney; conditions: 30 μM octanoyl-CoA, 3 nM dehydrogenase
# T1 sequence (P41367 26-421): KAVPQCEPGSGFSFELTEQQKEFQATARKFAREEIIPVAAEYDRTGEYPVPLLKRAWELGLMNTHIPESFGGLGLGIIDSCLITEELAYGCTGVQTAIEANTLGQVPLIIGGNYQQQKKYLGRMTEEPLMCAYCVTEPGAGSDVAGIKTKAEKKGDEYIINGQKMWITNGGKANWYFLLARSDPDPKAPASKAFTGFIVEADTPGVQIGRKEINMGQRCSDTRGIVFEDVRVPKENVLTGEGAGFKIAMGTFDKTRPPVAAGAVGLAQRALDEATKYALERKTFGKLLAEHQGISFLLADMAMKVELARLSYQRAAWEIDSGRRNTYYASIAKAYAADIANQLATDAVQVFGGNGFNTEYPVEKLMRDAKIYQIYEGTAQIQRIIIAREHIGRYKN
# Method: (§1) General Information: Medium chain acyl-CoA dehydrogenase was purified from pig kidney as described previously (33). Porcine liver esterase (EC 3.1.1.1), CoASH (lithium salt), D-pantethine, and 5,5′-dithio-bis(2-nitrobenzoic acid) were obtained from Sigma. E,E-2,4-octadienal and E,E-2,4-dodecadienal were from Alfa and K & K Laboratories respectively. […] Thorpe et al. in Biochemistry 1979, 18, 331–337. Unless otherwise stated, buffers were 50 mM potassium phosphate, pH 7.6, containing 0.3 mM EDTA, and experiments were conducted at 25° C. Assays of the medium chain dehydrogenase were as described previously, see C. Thorpe et al. in Anal. Biochem. 1990, 186, 280–284. Static and rapid-reaction spectrophotometry were performed as reported in C. Thorpe et al, in Biochemistry 1998, 37, 10469–10477.
# In competition studies with the substrate octanoyl-CoA, at a concentration of 30 μM, both the CoA and pantetheine analogs of the compounds of the invention are shown to be relatively strong reversible inhibitors of medium chain dehydrogenase. The assay studies included a dehydrogenase concentration of 3 nM. Compared to a control without inhibitor, 4.4 nM of the 3,4-decadienoyl-CoA analog decreased the rate to 50% within 1 minute.
# [2] = target: T2, medium-chain acyl-CoA dehydrogenase (MC-CoA DH) (Sus scrofa, UniProt P41367); experiment: Kinetic stability of enzyme adducts (return of oxidized flavin absorbance at 446 nm); type: biochemical, pig; conditions: for rate constant of enzyme adduct decomposition: 1.6 equivalents racemic 3,4-dienoyl-CoA (0.8 equivalent R-isomer), 9.5 μM enzyme, pH 7.6; for enzyme adduct stability relative to the corresponding full length CoA-thioester: times more stable than the CoA adduct
# T2 construct: medium-chain acyl-CoA dehydrogenase (MC-CoA DH) as purified from pig kidney; from tissue; host or cells: pig kidney
# T2 sequence (P41367 26-421): T1 sequence (P41367 26-421)
# Excerpt: The reduced flavin adduct decomposes to the 2,4-conjugated diene with the return of the oxidized flavin absorbance spectrum. This isomerization provides a measure of the kinetic stability of each of the enzyme adducts formed. The dehydrogenase enzyme used in the stability testing of the inventive compounds was medium-chain acyl-CoA dehydrogenase (MC-CoA DH) as purified from pig kidney.
# as §1
# A solution of acyl-CoA dehydrogenase (9.5 μM in 50 mM phosphate buffer, pH 7.6, 25° C.) is mixed with 1.6 equivalents of racemic 3,4-dienoyl-CoA derivatives (0.8 equivalent of R-isomer) containing 5, 6, 7, 8, 10, 12 and 15 carbon acyl chains. The return of oxidized flavin absorbance was monitored at 446 nm. A sub-stoichiometric amount (1.6 equivalents racemate: corresponding to 0.8 equivalent of the R-isomer) is used to avoid the lag phases encountered in the presence of excess inhibitor. The return of oxidized flavin absorbance is strongly chain length dependent.
# Enzyme adduct stabilities with the medium-chain acyl-CoA dehydrogenase of R-(−)-3,4-decadienoyl-CoA, R-(−)-3,4-decadienoyl-pantetheine, and R-(−)-3,4-decadienoyl N-acetylcysteamine were compared. The dehydrogenase was incubated with 0.8 equivalents of the CoA, pantetheine and N-acetylcysteamine thioesters of R-(−)-3,4-decadienoic acid until maximal bleaching of the flavin chromophore was observed. The reappearance of the oxidized flavin chromophore was then followed at 25° C.
# [3] = target: T1, medium chain dehydrogenase; conditions: absence of displacing ligand; cited from earlier work
# [4] = target: T3, medium chain acyl-CoA dehydrogenase (Sus scrofa, UniProt P41367); experiment: Spectral titration / inhibition of the dehydrogenase by allenic thioesters; type: biochemical, pig
# T3 construct: medium-chain acyl-CoA dehydrogenase (MC-CoA DH) as purified from pig kidney; from tissue; host or cells: pig kidney
# T3 sequence (P41367 26-421): T1 sequence (P41367 26-421)
# Excerpt: See, Example 1. The (S)-enantiomer is rapidly isomerized to the trans-2,4-conjugated diene. […] These structural studies show a surprising, but relatively large, variation in the interaction between structurally similar inhibitors.
# as §1
# The spectral changes were completed rapidly before measurement could be made. Intermediate spectra are omitted for clarity. […] In FIG. 1C, the enzyme (5.06 μM in 50 mM phosphate buffer, pH 7.6, 25° C.; curve 1) was titrated with 2.53, 5.06, 36.4, 66.8, 109.3 μM of S-(+)-decadienoyl-CoA (curves 2–6, respectively). Intermediate spectra are omitted for clarity. The absorbance values at 446 nm are shown in the inset.
# [5] = target: T3, medium chain acyl-CoA dehydrogenase; experiment: Enzyme adduct formation: bleaching of the flavin chromophore at 446 nm (stopped-flow / conventional spectrophotometry); type: biochemical, pig; conditions: for limiting rate of flavin bleaching / rate constant of bleaching of the flavin chromophore at 446 nm: 2° C.; for rate constant of bleaching of the flavin chromophore at 446 nm: at 50 μM; for long wavelength band: compared with the CoA compound, pantetheine at 50 μM
# Method: as §1
# (§2) Bleaching of the flavin chromophore, followed at 446 nm, is relatively rapid for the pantetheine compound, but slow enough for a conventional spectrophotometer with the N-acetylcysteamine compound. At 50 μM, the rate constants are 30.9 s^−1, 7.5 s^−1, and 0.035 s^−1 for the CoA, pantetheine, N-acetylcysteamine compounds, respectively at 2° C. Limiting rates of 33 s^−1 and 55 s^−1 are obtained for CoA and pantetheine thioesters, respectively.
# Dehydrogenase and R-(−)3,4-decadienoyl-CoA are mixed in the stopped-flow spectrophotometer at 2° C. to give final concentrations of 11 μM and 60 μM. The absorbance changes at 446 and 800 nm are shown in the inset of FIG. 2. As is observed with a number of diverse thioester substrates, such as butyryl-, octanoyl- and dihydrocinnamoyl-CoA, bleaching of the flavin at 446 nm is biphasic.
# The absorbance changes were recorded in a 2 cm path-length cell after mixing dehydrogenase and R-(−)-thioester in the stopped flow spectrophotometer to give final concentrations of 5.5 and 30 μM respectively in 50 mM phosphate buffer, pH 7.6 at 2° C. […] Absorbance traces at a range of wavelengths were used to construct the spectrum of the intermediate species maximal at about 20 msec.
# [6] = Solubility observation during rate measurements; type: physicochemical
# Method: as §2
compound,measurement,setting,value
"3,4-decadienoyl pantetheine [3,4-decadienoyl-pantetheine]",IC50,[1]; read-out: concentration required to decrease the rate to 50% of control,500 nM
"CCCCCCCC=C=CCC(=O)SCCNC(=O)CCNC(=O)[C@H](O)C(C)(C)COP(=O)(O)OP(=O)(O)OC[C@H]1O[C@@H](n2cnc3c(N)ncnc32)[C@H](O)[C@@H]1OP(=O)(O)O (racemic) [3,4-dodecadienoyl-CoA]",rate constant of enzyme adduct decomposition,[2]; 25° C.,0.18 h⁻¹
"CCC=C=CCC(=O)SCCNC(=O)CCNC(=O)[C@H](O)C(C)(C)COP(=O)(O)OP(=O)(O)OC[C@H]1O[C@@H](n2cnc3c(N)ncnc32)[C@H](O)[C@@H]1OP(=O)(O)O (racemic) [3,4-heptadienoyl-CoA]",rate constant of enzyme adduct decomposition,[2]; 25° C.,1.9 h⁻¹
"CC=C=CCC(=O)SCCNC(=O)CCNC(=O)[C@H](O)C(C)(C)COP(=O)(O)OP(=O)(O)OC[C@H]1O[C@@H](n2cnc3c(N)ncnc32)[C@H](O)[C@@H]1OP(=O)(O)O (racemic) [3,4-hexadienoyl-CoA]",rate constant of enzyme adduct decomposition,[2]; 25° C.,8.7 h⁻¹
"CCCC=C=CCC(=O)SCCNC(=O)CCNC(=O)[C@H](O)C(C)(C)COP(=O)(O)OP(=O)(O)OC[C@H]1O[C@@H](n2cnc3c(N)ncnc32)[C@H](O)[C@@H]1OP(=O)(O)O (racemic) [3,4-octadienoyl-CoA]",rate constant of enzyme adduct decomposition,[2]; 25° C.,0.08 h⁻¹
"CCCCCCCCCCC=C=CCC(=O)SCCNC(=O)CCNC(=O)[C@H](O)C(C)(C)COP(=O)(O)OP(=O)(O)OC[C@H]1O[C@@H](n2cnc3c(N)ncnc32)[C@H](O)[C@@H]1OP(=O)(O)O (racemic) [3,4-pentadecanedienoyl-CoA]",rate constant of enzyme adduct decomposition,[2]; 25° C.,0.27 h⁻¹
"C=C=CCC(=O)SCCNC(=O)CCNC(=O)[C@H](O)C(C)(C)COP(=O)(O)OP(=O)(O)OC[C@H]1O[C@@H](n2cnc3c(N)ncnc32)[C@H](O)[C@@H]1OP(=O)(O)O [3,4-pentadienoyl-CoA, reference compound]",rate constant of enzyme adduct decomposition,[2]; 25° C.,1.6 h⁻¹
same,half-life of reduced flavin adduct,[3],about 75 min
"CCCC=C=CCC(=O)SCCNC(=O)CCNC(=O)[C@H](O)C(C)(C)COP(=O)(O)OP(=O)(O)OC[C@H]1O[C@@H](n2cnc3c(N)ncnc32)[C@H](O)[C@@H]1OP(=O)(O)O [(R)-3,4-octadienoyl-CoA]",inhibition of the dehydrogenase,[4],potent inhibitor
"CCCC=C=CCC(=O)SCCNC(=O)CCNC(=O)[C@H](O)C(C)(C)COP(=O)(O)OP(=O)(O)OC[C@H]1O[C@@H](n2cnc3c(N)ncnc32)[C@H](O)[C@@H]1OP(=O)(O)O [(S)-3,4-octadienoyl-CoA]",inhibition of the dehydrogenase,[4],"very little, if any, inhibition"
"CCCCCC=C=CCC(=O)SCCNC(=O)CCNC(=O)[C@H](O)C(C)(C)COP(=O)(O)OP(=O)(O)OC[C@H]1O[C@@H](n2cnc3c(N)ncnc32)[C@H](O)[C@@H]1OP(=O)(O)O [R-(−)-3,4-decadienoyl-CoA]",stoichiometry of bleaching at 446 nm,"[4]; 9.6 μM enzyme, pH 7.6, 25° C., FIG. 1B inset",0.95 equivalents
same,limiting rate of flavin bleaching,[5],33 s⁻¹
same,rate constant of bleaching of the flavin chromophore at 446 nm,[5],30.9 s⁻¹
"CCCCCC=C=CCC(=O)SCCNC(C)=O [R-(−)-3,4-decadienoyl-N-acetylcysteamine]",rate constant of bleaching of the flavin chromophore at 446 nm,[5],0.035 s⁻¹
same,long wavelength band,[5],no long-wavelength band was observed
same,regain of flavin absorbance (adduct stability in words),"[2]; 0.8 equivalents, 25° C.",no appreciable regain of the flavin absorbance after two days
same,enzyme adduct stability relative to the corresponding full length CoA-thioester,[2],greater than 100 times
same,solubility,[6],low solubility
"CCCCCC=C=CCC(=O)SCCNC(=O)CCNC(=O)[C@H](O)C(C)(C)CO [R-(−)-3,4-decadienoyl-pantetheine]",limiting rate of flavin bleaching,[5],55 s⁻¹
same,rate constant of bleaching of the flavin chromophore at 446 nm,[5],7.5 s⁻¹
same,long wavelength band,[5],one quarter as intense
same,enzyme adduct stability relative to the corresponding full length CoA-thioester,[2],~9 times
same,enzyme adduct stability relative to the corresponding full length CoA-thioester,"[2]; listed as (R)-3,4-decadienoyl-pantetheine",10 times
"CCCCCC=C=CCC(=O)SCCNC(=O)CCNC(=O)[C@H](O)C(C)(C)COP(=O)(O)OP(=O)(O)OC[C@H]1O[C@@H](n2cnc3c(N)ncnc32)[C@H](O)[C@@H]1OP(=O)(O)O [S-(+)-3,4-decadienoyl-CoA]",inhibition of the dehydrogenase,[4],relatively weak inhibitor
same,flavin adduct formation,[4]; spectral titration,does not form a detectable flavin adduct
decadienoyl-CoA,rate constant of enzyme adduct decomposition,[2]; 25° C.,0.12 h⁻¹
same,IC50,"[1]; within 1 minute, read-out: concentration that decreased the rate to 50% of control",4.4 nM
